Data reported in PubChem BioAssay AID2305 (GlaxoSmithKline (GSK), 2010).
pIC50: −log10 of the molar value.

The compounds below were run on P. falciparum 3D7 growth, pLDH absorbance (assay: P. falciparum 3D7 growth inhibition, dose response, strain 3D7 (AID 2305)).

Q: With `CCCCNC[C@@H](O)[C@H](Cc1ccccc1)NC(=O)c1cc(NCC)cc(N2CCCCS2(=O)=O)c1` as the compound, how does the pIC50 read?
A: 6.40

Q: With `CC(C)C[C@H](NC(=O)c1cc2ccccc2s1)C(=O)N[C@H]1CCN(Cc2ccc(OC3CCN(C)C3)c(Cl)c2)C1` (some centres not stated) as the compound, how does the pIC50 read?
A: 6.11

Q: How did the pIC50 turn out when `Cc1cc(N[C@@H](Cc2ccccc2)C(=O)Nc2ccccc2)nc(NCCc2cccs2)n1` was run?
A: 6.10

Q: `COc1cc(OCCCN(C)Cc2ccc(OC)c(OC)c2)ccc1NC(=O)c1cccc2c(=O)c3cccc(F)c3[nH]c12` was tested. Which pIC50 did it give?
A: 6.05

Q: `CC(=O)Nc1nc(C(=O)Nc2ccc(-c3ccc(-c4nc5ccc(F)cc5[nH]4)cc3)cc2)cs1` was tested. Which pIC50 did it give?
A: 6.34

Q: With `Cc1cc(C)cc(-n2c(C)cc(C=C3SC(=Nc4ccc(Cl)cc4)NC3=O)c2C)c1` as the compound, how does the pIC50 read?
A: 7.15

Q: How did the pIC50 turn out when `O=c1[nH]c(=O)n2c(nc3ccccc32)[nH]1` was run?
A: 6.77

Q: `COc1cc(Br)c(S(=O)(=O)n2cc(CN3CCC(N)CC3)c3cc(Cl)ccc32)cc1OC` was tested. Which pIC50 did it give?
A: 6.00

Q: How did the pIC50 turn out when `Cc1cccc(-c2ccc3c(c2)CC(NCc2cccc(-n4ccnc4)c2)C3)c1` (configuration not stated) was run?
A: 6.06

Q: `O=C(Nc1cccc(-c2ccc(-c3nc4ccc(C(F)(F)F)cc4[nH]3)cc2)c1)c1cccnc1` was tested. Which pIC50 did it give?
A: 6.24

Q: How did the pIC50 turn out when `Cc1cc(N[C@@H](CC(C)C)C(=O)NCCOc2ccccc2)nc(Nc2ccccc2)n1` was run?
A: 5.95

Q: How did the pIC50 turn out when `N#Cc1ccc(-c2ccc(C(=O)NC3CCN(CCN4CCC(c5cn(CCOC6CCCCO6)c6ccccc56)CC4)CC3)cc2)cc1` (configuration not stated) was run?
A: 6.22

Q: With `Cc1ccc2nc3ccccc3c(NCCN3CCN(C)CC3)c2c1` as the compound, how does the pIC50 read?
A: 6.23

Q: With `Fc1ccc(N(c2nc(-c3cc(F)cc(C(F)(F)F)c3)cs2)C2CCNCC2)cc1` as the compound, how does the pIC50 read?
A: 6.02

Q: `COc1ccc2ccccc2c1CCCCN1CCN(CC(c2ccc(F)cc2)N2CCN(C3CCCC3)CC2)CC1` (configuration not stated) was tested. Which pIC50 did it give?
A: 6.11

Q: How did the pIC50 turn out when `O=C(/C=C/c1ccc(Cl)c(Cl)c1)NCCCCCN1CCCN(C(=O)Nc2ccc(Br)cc2)CC1` was run?
A: 6.11

Q: With `OCC1CCN(Cc2ccc(-c3ccc(-c4nc5ccccc5[nH]4)cc3)cc2)CC1` as the compound, how does the pIC50 read?
A: 6.05

Q: How did the pIC50 turn out when `Cn1nc(-c2ccc(NC(=O)Nc3cc(C(F)(F)F)ccc3F)c(F)c2)c2cnc(NCCCn3ccnc3)nc21` was run?
A: 6.13

Q: How did the pIC50 turn out when `Cc1cc(-c2cc(-c3ccc(OCCN(C)C)cc3)[nH]c2-c2ccc3c(c2)CCC3=NO)ccn1` was run?
A: 6.06

Q: `O=C(/C=C/c1ccc(Cl)c(Cl)c1)NCCCCCCN1CCN(C(=O)Nc2ccc(C(F)(F)F)cc2)CC1` was tested. Which pIC50 did it give?
A: 6.40

Q: How did the pIC50 turn out when `O=C(Nc1cccc(Oc2ccccc2)c1)N[C@H]1CCN(Cc2ccc(OCCCN3CCCCC3)cc2)C1` was run?
A: 6.14

Q: `Cc1ccc(Oc2cnn(C)c(=O)c2Nc2cccc(C(=O)NCCc3ccccn3)c2)c(C)c1` was tested. Which pIC50 did it give?
A: 6.31

Q: `COc1cccc(CN2CCC(CCOC(c3ccccc3)c3ccccc3)CC2)c1O` was tested. Which pIC50 did it give?
A: 6.14

Q: How did the pIC50 turn out when `COc1ccccc1NC(=O)Nc1cccc(-c2ccc(-c3nc4c(C)cccc4[nH]3)s2)c1` was run?
A: 6.24

Q: How did the pIC50 turn out when `CC(=O)N(Cc1ccccc1-c1cccc(CNCc2ccc3c(c2)OCO3)c1)C1CCN(Cc2ccccc2)CC1` was run?
A: 5.98

Q: `COc1ccc2nccc([C@@H](O)CN3CCC(NCc4ccc5nsnc5c4)CC3)c2c1` was tested. Which pIC50 did it give?
A: 6.02

Q: `O=C(c1ccc(-c2ccc(-c3nc4ccc(F)cc4[nH]3)cc2)cc1)N1CCCCC1CN1CCC(O)C1` (configuration not stated) was tested. Which pIC50 did it give?
A: 6.43

Q: `Cc1cc(=O)c(-c2ccc(Oc3cccc(Cl)c3)cc2)c(C)[nH]1` was tested. Which pIC50 did it give?
A: 6.22

Q: How did the pIC50 turn out when `CCCCN(CCCC)CCCN(CCCN(CCCC)CCCC)c1cc(C)nc(Nc2ccc(Br)cc2)n1` was run?
A: 6.89

Q: `CN1CCN(c2ccc(-c3cc(-c4cc(F)c(F)c(F)c4)cnc3N)cc2)CC1` was tested. Which pIC50 did it give?
A: 6.00

Q: With `Cc1cc(N[C@@H](Cc2ccccc2)C(=O)Nc2ccccc2)nc(NCCc2ccc(F)cc2)n1` as the compound, how does the pIC50 read?
A: 6.07

Q: `N=C(N)c1ccc2nc(SCc3ccccc3)[nH]c2c1` was tested. Which pIC50 did it give?
A: 6.16

Q: With `CCc1ccccc1N1CCN(CCCC(=O)c2ccc(NC(=O)c3cc(Cl)cc(Cl)c3)cc2)CC1` as the compound, how does the pIC50 read?
A: 6.54

Q: `CCCc1cc(OC)c(CC2c3cc(O)c(Cl)cc3CCN2C)cc1OC` (configuration not stated) was tested. Which pIC50 did it give?
A: 6.24

Q: With `COc1ccc(NS(=O)(=O)c2cccc(C(=O)Nc3ccc(C(F)(F)F)cc3)c2)cc1N1CCN(CC(C)C)CC1` as the compound, how does the pIC50 read?
A: 6.08

Q: How did the pIC50 turn out when `Nc1nc(N)c2c(Cl)c(CNc3cccc(C(=O)O)c3)ccc2n1` was run?
A: 8.00

Q: `CC1CC(C)CN(CCCNc2ccc(C(=O)Nc3ccc(C(F)(F)F)cc3)cc2[N+](=O)[O-])C1` (configuration not stated) was tested. Which pIC50 did it give?
A: 6.70

Q: With `O=C(/C=C/c1ccc(Cl)c(Cl)c1)NC1CCC(CN2CCC(c3c[nH]c4cc(O)ccc34)CC2)CC1` (configuration not stated) as the compound, how does the pIC50 read?
A: 6.09

Q: How did the pIC50 turn out when `CN1CCC[C@H]1COc1ccc(CN2CC[C@H](NC(=O)c3ccc(Cl)c(Cl)c3)C2)c2ccccc12` was run?
A: 6.02

Q: How did the pIC50 turn out when `COc1cccc(CNC(=O)c2cccc(-c3cccc(CN4CCC(N5CCCC5)CC4)c3)n2)c1` was run?
A: 5.99

Q: With `Cc1ccc2c(c1)NC[C@@]21CCN(C[C@@H](O)C2CCN(c3ccnc(Cl)c3)CC2)C[C@@H]1C` as the compound, how does the pIC50 read?
A: 6.03

Q: `Cc1noc(C)c1-c1cccc(CNCc2ccc(-c3ccc(-c4nc5ccc(F)cc5[nH]4)s3)cc2)c1` was tested. Which pIC50 did it give?
A: 6.38

Q: With `N#Cc1cccc(NC(=O)Nc2cccc(-c3cccc(-c4nc5ccc(C(F)(F)F)cc5[nH]4)c3)c2)c1` as the compound, how does the pIC50 read?
A: 6.66

Q: With `COc1ccc(NC(=O)[C@H](CC(C)C)Nc2cc(C)nc(Nc3ccccc3)n2)cc1` as the compound, how does the pIC50 read?
A: 6.06

Q: With `COc1cccc(CC(C)NCC(O)c2cccc(Cl)c2)c1` (configuration not stated) as the compound, how does the pIC50 read?
A: 5.90

Q: How did the pIC50 turn out when `c1cncc(Oc2ccc(Nc3ccnc4cc(-c5cccc(CN6CCOCC6)c5)ccc34)cc2)c1` was run?
A: 6.51

Q: `CCCNC(=O)c1cncc(-c2cccc(CNC3Cc4ccccc4C3)c2)c1` was tested. Which pIC50 did it give?
A: 6.10
